PMC10518421, “Zebrafish as model system for the biological characterization of CK1 inhibitors” (Frontiers in Pharmacology, 2023)
“Also recorded” adds a separate entry of the source. Like-named read-outs stand apart in the source and are kept apart here.

Experiments:
CK1δ = settings: prior to standardization, cited from earlier work
zebrafish embryos = settings: for phenotype of treated zebrafish embryos: 24 to 72 hpf (48 h); for dose dependence of phenotype: 5, 10, 20 and 40 µM
His-DrCK1δA = molecular target: T1, His-DrCK1δA (Danio rerio, UniProt Q7T2E3); assay: in vitro kinase assay, α-casein phosphorylation with [γ-32P]-ATP, standard conditions; format: biochemical, zebrafish (Danio rerio); settings: for mean residual kinase activity ± SD: 20 µM inhibitor, normalized to DMSO control
T1 construct: made in house; host or cells: E. coli Rosetta 2 (DE3)
T1 sequence (Q7T2E3 1-403): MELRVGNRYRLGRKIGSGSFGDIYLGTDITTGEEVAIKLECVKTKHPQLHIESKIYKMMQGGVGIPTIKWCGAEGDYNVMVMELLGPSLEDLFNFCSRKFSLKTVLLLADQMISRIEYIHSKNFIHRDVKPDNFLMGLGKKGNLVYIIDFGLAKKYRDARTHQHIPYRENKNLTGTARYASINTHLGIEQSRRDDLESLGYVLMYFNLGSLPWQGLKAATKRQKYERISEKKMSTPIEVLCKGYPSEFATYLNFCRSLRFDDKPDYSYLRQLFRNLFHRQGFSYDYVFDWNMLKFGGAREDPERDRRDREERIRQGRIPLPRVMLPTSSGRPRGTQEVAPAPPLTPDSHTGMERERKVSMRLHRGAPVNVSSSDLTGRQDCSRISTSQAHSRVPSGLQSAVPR
Experimental: (§1) Each in vitro kinase reaction was performed in a total volume of 15 µL containing 25 mM Tris-HCl (pH 7.0), 10 mM MgCl2, 100 µM EDTA, 2.8 µM of the substrate α-casein and 0.4 pmol [γ-^32P]-ATP at 30°C. […] Reactions were stopped by adding 3 µL of 5x SDS loading buffer and incubating at 95°C for 5 min. Proteins were separated by SDS-PAGE and stained with Coomassie Brilliant Blue R250 (Waldeck GmbH & Co. KG, Muenster, Germany). Autoradiography visualized the incorporation of radioactively labelled γ-phosphate into the proteins. A quantitative analysis of the radioactive signal was performed by excising the proteins from dried gels and measuring phosphate incorporation via Cherenkov counting (Beckmann Scintillation Counter). For the determination of the initial velocity region, a linear regression was performed. Thereby, the number of included data-points was decreased stepwise, and the point of time with the highest maximum coefficient of determination (R ^2) was chosen as the kinase-specific standard reaction time. For determination of the maximal velocity (Vmax) and Michaelis constant (Km) of ATP, various ATP concentrations in a range from 0.5 to 250 µM were tested. Raw data was used for the calculation of enzyme velocity (V) in [pmol/min]. Then, V was plotted over substrate (ATP) concentration and fitted to the Michaelis-Menten model via GraphPad Prism 8 (GraphPad Software, La Jolla, CA, United States). According to the Michaelis-Menten curve, Km, which is the concentration of the substrate, that is needed to obtain half Vmax, was calculated. For determination of IC50 values, the scintillation data measured in cpm was transformed to pmol of transferred phosphate. The data was then transformed logarithmically (X = log(X)), normalized to DMSO (100%) and zero (0%) before fitting to sigmoidal dose-response curves with variable slope with nonlinear regression using GraphPad Prism 7.
(§2) In compliance with the established standard conditions the kinase assays were performed in the presence of 20 µM of the respective inhibitor (Figure 7).
(§3) Next, in vitro kinase assays were performed in absence and presence of the respective SMI at different concentrations (ranging from 13 to 26667 nM). The kinase activity of the inhibitor-treated samples was normalized to the DMSO-control and plotted against the inhibitor concentration (Figure 10).

His-DrCK1δB = molecular target: T2, His-DrCK1δB (Danio rerio, UniProt Q6P3K7); assay: as above; format: biochemical, zebrafish (Danio rerio); settings: for mean residual kinase activity ± SD: 20 µM inhibitor, normalized to DMSO control
T2 construct: made in house; host or cells: E. coli Rosetta 2 (DE3)
T2 sequence (Q6P3K7 1-409): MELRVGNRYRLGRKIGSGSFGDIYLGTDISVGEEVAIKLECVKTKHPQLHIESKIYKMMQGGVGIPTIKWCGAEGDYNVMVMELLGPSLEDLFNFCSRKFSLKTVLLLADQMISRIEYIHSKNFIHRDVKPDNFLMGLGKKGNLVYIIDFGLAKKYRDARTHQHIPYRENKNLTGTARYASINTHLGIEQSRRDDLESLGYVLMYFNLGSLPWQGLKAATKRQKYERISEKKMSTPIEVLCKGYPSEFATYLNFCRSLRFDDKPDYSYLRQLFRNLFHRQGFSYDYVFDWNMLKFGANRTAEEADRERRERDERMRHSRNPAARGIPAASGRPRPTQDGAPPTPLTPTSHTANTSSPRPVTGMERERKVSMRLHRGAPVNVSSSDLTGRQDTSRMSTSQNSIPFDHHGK
Experimental: as §1, §2, §3

GST-humCK1δ^TV1 = molecular target: T3, GST-humCK1δ^TV1 (Homo sapiens, UniProt P48730); assay: as above; format: biochemical; settings: for mean residual kinase activity ± SD: 20 µM inhibitor, normalized to DMSO control
T3 construct: made in house; host or cells: E. coli Rosetta 2 (DE3)
T3 sequence (P48730 whole entry): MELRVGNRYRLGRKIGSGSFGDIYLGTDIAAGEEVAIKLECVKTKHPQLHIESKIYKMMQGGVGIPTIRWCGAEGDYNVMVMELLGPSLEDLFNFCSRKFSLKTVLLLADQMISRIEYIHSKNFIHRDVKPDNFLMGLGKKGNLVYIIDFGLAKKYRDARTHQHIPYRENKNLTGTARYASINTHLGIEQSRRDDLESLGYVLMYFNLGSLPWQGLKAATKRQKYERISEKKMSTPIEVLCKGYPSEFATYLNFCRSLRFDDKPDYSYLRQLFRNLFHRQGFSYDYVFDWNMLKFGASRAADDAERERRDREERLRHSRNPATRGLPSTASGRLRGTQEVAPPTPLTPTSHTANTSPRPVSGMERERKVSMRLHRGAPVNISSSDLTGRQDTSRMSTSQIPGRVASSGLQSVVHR
Experimental: as §1, §2, §3

His-DrCK1ε = assay: as above; format: biochemical, zebrafish (Danio rerio); settings: 20 µM inhibitor, normalized to DMSO control
Experimental: as §1, §2

CK1ε = CK1ε (Homo sapiens, UniProt P49674); assay: initial IC50 determination in in vitro kinase assays, prior to standardization; format: biochemical; settings: marked * not published, read-out: IC50 values CK1ε
CK1ε, sequence (P49674 whole entry): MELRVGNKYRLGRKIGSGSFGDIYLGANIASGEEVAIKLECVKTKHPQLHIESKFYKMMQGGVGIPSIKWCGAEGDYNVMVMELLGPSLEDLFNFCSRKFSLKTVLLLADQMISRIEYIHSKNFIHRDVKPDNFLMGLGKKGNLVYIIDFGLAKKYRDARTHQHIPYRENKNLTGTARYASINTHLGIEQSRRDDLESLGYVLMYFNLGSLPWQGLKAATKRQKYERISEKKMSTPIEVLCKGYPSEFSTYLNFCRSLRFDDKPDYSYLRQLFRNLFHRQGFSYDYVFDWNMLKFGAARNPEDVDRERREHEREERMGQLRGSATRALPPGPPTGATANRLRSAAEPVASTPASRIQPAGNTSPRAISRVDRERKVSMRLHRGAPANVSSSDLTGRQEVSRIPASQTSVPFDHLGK
Experimental: (§4) The SMIs used in this study (summarized in Supplementary Table S2) were selected based on their inhibitory capacity toward CK1δ in vitro, whereby a broad range of inhibitors with varying efficiency were included. The determination of IC50-values was conducted prior to the standardization workflow establishment. Zebrafish embryos treated with 20 µM of the respective compound were phenotypically analyzed.
(§5) Supplementary Table 6: List of the inhibitors that were selected for the in vivo screening of zebrafish embryonic development. The compounds were selected based on their ability to inhibit CK1δ in in vitro kinase assays. The initial IC50-values were determined prior to the establishment of the standardized in vitro kinase assay protocol. The Supplementary Table summarizes, whether the zebrafish embryos presented an abnormal phenotype upon inhibitor treatment. The inhibitors were added to the zebrafish medium in a concentration of 20 µM.

GST-CK1ε = molecular target: T4, GST-CK1ε (Homo sapiens, UniProt P49674); assay: in vitro kinase assay, α-casein phosphorylation with [γ-32P]-ATP, standard conditions; format: biochemical; settings: 20 µM inhibitor, normalized to DMSO control
T4 construct: made in house; host or cells: E. coli Rosetta 2 (DE3)
T4 sequence (P49674 whole entry): as above
Experimental: as §1, §2

CK1δ (TV1) = CK1δ (TV1) (Homo sapiens, UniProt P48730); assay: initial IC50 determination in in vitro kinase assays, prior to standardization; format: biochemical; settings: not published
CK1δ (TV1), sequence (P48730 whole entry): as the sequence (P48730 whole entry) above
Experimental: as §4, §5

csnk1db (CK1δB) = assay: morpholino knockdown in zebrafish embryos, phenotype; format: in vivo, zebrafish (D. rerio); settings: 300 µM injected, 72 hpf
Source text: The TüAB wildtype strain was used for all experiments. […] DMSO served as solvent control. […] Embryos were immobilized in 2.5% methylcellulose.

[1] = inhibitor 13 to 26667 nM, ATP at Km, normalized to DMSO
[2] = resulting from IC50 (Cheng-Prusoff, ATP at Km)

mean residual kinase activity ± SD (His-DrCK1δA) [%] | mean residual kinase activity ± SD (His-DrCK1δB) [%] | Phenotypic changes (with severity) after treatment of zebrafish embryos with 20 µM inhibitor (zebrafish embryos; 20 µM in medium, from 24 hpf) | mean residual kinase activity ± SD (GST-humCK1δ^TV1) [%] | mean residual kinase activity ± SD (His-DrCK1ε) [%] | mean residual kinase activity ± SD (GST-CK1ε) [%] | IC50 (CK1δ (TV1)) [nM] | Compound | phenotype of treated zebrafish embryos (zebrafish embryos; 5 µM) | phenotype of treated zebrafish embryos (zebrafish embryos; 10 µM) | phenotype of treated zebrafish embryos (zebrafish embryos; 20 µM) | phenotype of treated zebrafish embryos (zebrafish embryos; 40 µM) | further results
– | – | – | – | – | – | – | O=C(CSc1nc2c(c(=O)n1-c1ccccc1)SCC2)Nc1nc2ccc(C(F)(F)F)cc2s1 [G1-1] | – | – | – | – | IC50 (CK1δ; ref García-Reyes et al., 2018): 660 nM; Phenotypic changes (zebrafish embryos; zebrafish, in vivo): Mild bradycardia; Phenotypic changes (with severity) after treatment of zebrafish embryos with 20 µM inhibitor (zebrafish embryos; zebrafish, in vivo): Yes (mild)
– | – | – | – | – | – | – | O=C(CSc1nc2c(c(=O)n1Cc1ccc(C(F)(F)F)cc1)SCC2)Nc1nc2ccc(C(F)(F)F)cc2s1 [G1-3] | – | – | – | – | IC50 (CK1δ; ref García-Reyes et al., 2018): 330 nM; Phenotypic changes (zebrafish embryos; zebrafish, in vivo): None observed; Phenotypic changes (with severity) after treatment of zebrafish embryos with 20 µM inhibitor (zebrafish embryos; zebrafish, in vivo): No
7.6 ± 1.2 | 6.3 ± 0.8 | Yes (severe) | 3.2 ± 0.3 | 11.3 ± 3.3 | 8.6 ± 1.6 | 970 | COc1ccccc1-n1c(SCC(=O)Nc2nc3ccc(C(F)(F)F)cc3s2)nccc1=O [G2-4, 2-((3-(2-Methoxyphenyl)-4-oxo-3,4-dihydropyrimidin-2-yl)thio)-N-(6-(trifluormethyl)benzo[d]thiazol-2-yl)acetamid] | mild phenotype with a minor blood congestion | weakly beating ventricle and a pericardial edema | strong cardiac phenotype, with blood congestion, a strong bradycardia and partially total loss of heart beat; also recorded: severe effects on the embryonic development, with strong bradycardia and blood congestion; also recorded: pericardial edema; also recorded: almost not beating | bradycardia, a loss of ventricular beating and as a result pericardial edema | dose dependence of phenotype (zebrafish embryos; 48 h of incubation): increasingly severe cardiac malfunctions with increasing compound concentrations
– | – | No | – | – | – | 840 | COc1ccc(-n2c(SCC(=O)Nc3nc4ccc(C(F)(F)F)cc4s3)nccc2=O)cc1 [G2-5, 2-((3-(4-Methoxyphenyl)-4-oxo-3,4-dihydropyrimidin-2-yl)thio)-N-(6-(trifluormethyl)benzo[d]thiazol-2-yl)acetamid] | – | – | no effect on zebrafish development or heart function; also recorded: did not show a phenotypic effect | – | –
11.9 ± 3.2 | 10.0 ± 1.3 | Yes (severe) | 9.1 ± 1.6 | 25.5 ± 10.7 | 18.0 ± 4.8 | 1400 | COc1cccc(-n2c(SCC(=O)Nc3nc4ccc(C(F)(F)F)cc4s3)nccc2=O)c1 [G2-6, 2-((3-(3-Methoxyphenyl)-4-oxo-3,4-dihydropyrimidin-2-yl)thio)-N-(6-(trifluormethyl)benzo[d]thiazol-2-yl)acetamid] | cardiac phenotype, with bradycardia and blood congestion, resulting in cardiac edema | blood congestion and pericardial edema | strong cardiac phenotype, with blood congestion, a strong bradycardia and partially total loss of heart beat; also recorded: severe effects on the embryonic development, with strong bradycardia and blood congestion; also recorded: blood congestions; also recorded: pericardial edema | bradycardia, a loss of ventricular beating and as a result pericardial edema | dose dependence of phenotype (zebrafish embryos; 48 h of incubation): increasingly severe cardiac malfunctions with increasing compound concentrations
– | – | – | – | – | – | – | csnk1db morpholino: morpholino-modified antisense oligonucleotide targeting the translational start site of csnk1db, 5′-CTGTTTCCAACTCGTAGCTCCATTG-3′ (all phosphorodiamidate morpholino (PMO)) | – | – | – | – | phenotype of morpholino injected embryos (csnk1db (CK1δB)): reduced heart function resulting in blood congestion; phenotype of morpholino injected embryos (csnk1db (CK1δB); listed as csnk1db): cardiac malfunction; also recorded: slightly curved body axis; phenotype of morpholino injected embryos (csnk1db (CK1δB); listed as csnk1db Morpholino): reduced heart function

Compound | mean residual kinase activity ± SD (His-DrCK1δA) [%] | mean residual kinase activity ± SD (His-DrCK1δB) [%] | Phenotypic changes (with severity) after treatment of zebrafish embryos with 20 µM inhibitor (zebrafish embryos; 20 µM in medium, from 24 hpf) | mean residual kinase activity ± SD (GST-humCK1δ^TV1) [%] | mean residual kinase activity ± SD (His-DrCK1ε) [%] | mean residual kinase activity ± SD (GST-CK1ε) [%] | IC50 (CK1δ (TV1)) [nM] | phenotype of treated zebrafish embryos (zebrafish embryos; 5 µM) | phenotype of treated zebrafish embryos (zebrafish embryos; 10 µM) | phenotype of treated zebrafish embryos (zebrafish embryos; 20 µM) | phenotype of treated zebrafish embryos (zebrafish embryos; 40 µM) | further results
O=C(CSc1nccc(=O)n1Cc1ccc(C(F)(F)F)cc1)Nc1nc2ccc(C(F)(F)F)cc2s1 [G2-2] | 12.1 ± 3.9 | 16.1 ± 9.5 | Yes (severe) | 8.4 ± 1.1 | 10.5 ± 3.0 | 11.9 ± 2.0 | – | cardiac phenotype, with bradycardia and blood congestion | did not pump blood; also recorded: reduced heart function; also recorded: blood congestion and pericardial edema | strong cardiac phenotype, with blood congestion, a strong bradycardia and partially total loss of heart beat; also recorded: severe effects on the embryonic development, with strong bradycardia and blood congestion; also recorded: blood congestions; also recorded: pericardial edema | dead and highly toxic, and all treated embryos were dead after 48 h of treatment | IC50 (His-DrCK1δA; [1]): 345 nM; Ki (His-DrCK1δA; [2]): 173 nM; IC50 (His-DrCK1δB; [1]): 270 nM; Ki (His-DrCK1δB; [2]): 135 nM; IC50 (CK1δ; ref Liu et al., 2019): 120 nM; concentration that induced necrosis (zebrafish embryos; 48 h of incubation, doses 5, 10, 20 and 40 µM): 40 µM; lethality to embryos (zebrafish embryos; at concentrations of 20 and 40 μM): lethal; IC50 (GST-humCK1δ^TV1; [1]): 503 nM; Ki (GST-humCK1δ^TV1; [2]): 251 nM; IC50 (CK1ε): 926 nM
